Laboratory results taken from patent US4377574A, “Contraceptive treatment of male mammals” (The Salk Institute For Biological Studies, priority 1981, dated 1983).
Where a SMILES comes first, the peptide text is derived from it. [ ]: non-standard residue; d: D form. dPhe(4-Cl) = N[C@H](Cc1ccc(Cl)cc1)C(=O)O; NMeL = CN[C@@H](CC(C)C)C(=O)O; ΔPro = O=C(O)[C@@H]1C=CCN1

Legend:
male rats = experiment: contraceptive treatment of male rats, 14-day daily injection; type: in vivo, rat; conditions: 14-day treatment
Description: The peptide is used at a level effective to reduce testes and seminal vesicles weights and also to inhibit spermatogenesis after a 14-day administration to male rats. […] Prostate weights of male rats recover in 2-3 weeks and seminal vesicles weights in 4-5 weeks. It is preferred to use dosage levels in the range of from about 0.1 to about 1 milligram per rat per day, which can be administered without detrimental side effects.
Male rats (about 320 grams each) are each treated with 1 milligram of the peptide synthesized in Example I, once a day, for 14 days by injection in 0.2 ml. of corn oil. All the rats show a decrease in testes and seminal vesicles weight, spermatogenesis and plasma androgen levels.
Full recovery of testes and seminal vesicle weights and spermatogenesis ultimately occurs following cessation of the 14-day peptide administration. […] Fertility, as assessed by the ability to impregnate females, is restored in all of the rats which have not been sacrificed within 6 weeks after cessation of the injections.
A first group (I) of male rats (about 320 grams each) are each treated with 1 milligram of Peptide A synthesized in Example III, every day for 14 days, by injection in 0.2 ml. of corn oil. All the rats show a decrease in testes and seminal vesicles weight, spermatogenesis and plasma androgen levels. […]

[1] = tested on: pituitary gland of mammalians; conditions: cited from earlier work

Molecule | side effects / damage (male rats) | potency as an inhibitor for the release of gonadotropins relative to the same peptide with Gly in the 6-position [1] [times]
CC(=O)N1CC=C[C@H]1C(=O)N[C@H](Cc1ccc(Cl)cc1)C(=O)N[C@H](Cc1c[nH]c2ccccc12)C(=O)N[C@@H](CO)C(=O)N[C@@H](Cc1ccc(O)cc1)C(=O)N[C@H](Cc1c[nH]c2ccccc12)C(=O)N(C)[C@@H](CC(C)C)C(=O)N[C@@H](CCCNC(=N)N)C(=O)N1CCC[C@H]1C(=O)NCC(N)=O [Example I, [Ac--dehydro Pro^1, pCl--D--Phe^2,D--Trp^3,6,N^α MeLeu^7]--LRF] (Ac-[ΔPro][dPhe(4-Cl)][dW]SY[dW][NMeL]RPG-NH2) | without harmful side effects or irreversible damage | –
[des His^2, D--Ala^6 ] LRF | – | 3
